{"source": "patent US20240287080A1", "about": "(IDEAYA Biosciences Inc., priority 2021, published 2024)", "biological_target": "T1, Pol theta (1-899) (Homo sapiens, UniProt O75417)", "T1 construct": "Pol theta (1-899) (5 nM) in assay buffer", "T1 sequence (O75417 1-899)": "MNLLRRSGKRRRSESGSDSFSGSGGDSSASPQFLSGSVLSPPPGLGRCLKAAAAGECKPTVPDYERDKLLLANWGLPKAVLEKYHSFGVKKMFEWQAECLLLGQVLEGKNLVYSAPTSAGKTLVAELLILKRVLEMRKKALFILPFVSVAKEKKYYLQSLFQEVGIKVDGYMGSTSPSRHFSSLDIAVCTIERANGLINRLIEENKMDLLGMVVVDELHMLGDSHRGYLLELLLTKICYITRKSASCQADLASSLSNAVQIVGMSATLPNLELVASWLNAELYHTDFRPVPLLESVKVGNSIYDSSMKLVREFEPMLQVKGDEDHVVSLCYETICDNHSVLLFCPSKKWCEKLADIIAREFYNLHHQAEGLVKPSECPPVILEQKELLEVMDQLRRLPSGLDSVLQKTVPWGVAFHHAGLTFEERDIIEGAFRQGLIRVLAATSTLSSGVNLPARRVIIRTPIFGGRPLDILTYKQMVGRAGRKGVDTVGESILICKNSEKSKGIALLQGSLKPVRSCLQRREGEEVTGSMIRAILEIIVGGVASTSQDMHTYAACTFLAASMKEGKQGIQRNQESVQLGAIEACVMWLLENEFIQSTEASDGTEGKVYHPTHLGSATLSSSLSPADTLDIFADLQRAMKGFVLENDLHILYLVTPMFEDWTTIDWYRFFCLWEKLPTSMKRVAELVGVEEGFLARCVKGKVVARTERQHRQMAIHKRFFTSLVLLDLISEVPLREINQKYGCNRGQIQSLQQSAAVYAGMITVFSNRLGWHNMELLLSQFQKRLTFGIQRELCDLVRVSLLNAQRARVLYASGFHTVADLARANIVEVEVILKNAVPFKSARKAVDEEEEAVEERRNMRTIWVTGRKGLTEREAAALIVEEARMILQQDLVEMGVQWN", "experiment": "Pol theta ATPase activity, NADH oxidation-coupled enzymatic assay (ATPase NADH coupling: Standard Screening: hPolQ)", "assay_type": "biochemical", "settings": "Pol theta (1-899) 5 nM, NADH oxidation-coupled ATPase assay; compounds of Table 3", "procedure,_shortened": "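NADH-coupled ATPase readout: 5 nM Pol theta (1-899) preincubated 15 min with 10-point compound series in Tris pH 7.80, KCl, MgCl2, DTT, BSA, Tween, glycerol, then 100 μM ATP, 300 nM 50-mer poly-dT ssDNA, NADH, PEP, LDH and PK added (stock levels). A340 followed 60 min; slopes fit four-parameter for IC50.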"}
{"smiles": "COc1nnc(NC(=O)c2cnc(C)cc2-c2cccc(F)c2C#N)s1", "note": "[Example 430, 4-(2-cyano-3-fluorophenyl)-N-(5-methoxy-1,3,4-thiadiazol-2-yl)-6-methylpyridine-3-carboxamide]", "values": [{"measurement": "IC50", "value": "500 to 1000", "unit": "nM"}]}
{"smiles": "COc1nnc(NC(=O)c2cnc(C)cc2-c2cc(F)cnc2OC)s1", "note": "[Example 431, 5-fluoro-2-methoxy-N-(5-methoxy-1,3,4-thiadiazol-2-yl)-6′-methyl-[3,4′-bipyridine]-3′-carboxamide]", "values": [{"measurement": "IC50", "value": "500 to 1000", "unit": "nM"}]}
{"smiles": "COc1nnc(NC(=O)c2cnc(C)cc2-c2ccc3c(c2)CCN(C)C3)s1", "note": "[Example 432, N-(5-methoxy-1,3,4-thiadiazol-2-yl)-6-methyl-4-(2-methyl-1,2,3,4-tetrahydroisoquinolin-6-yl)nicotinamide]", "values": [{"measurement": "IC50", "value": "1000 to 10000", "unit": "nM"}]}
{"smiles": "COc1nnc(NC(=O)c2cnc(C)cc2-c2ccc(C#N)nc2C)s1", "note": "[Example 434, 6-cyano-N-(5-methoxy-1,3,4-thiadiazol-2-yl)-2,6′-dimethyl-[3,4′-bipyridine]-3′-carboxamide]", "values": [{"measurement": "IC50", "value": "1000 to 10000", "unit": "nM"}]}
{"smiles": "COc1ccc(-c2cc(C)ncc2C(=O)Nc2nnc(OC)s2)c(OC)n1", "note": "[Example 435, 2,6-dimethoxy-N-(5-methoxy-1,3,4-thiadiazol-2-yl)-6′-methyl-[3,4′-bipyridine]-3′-carboxamide]", "values": [{"measurement": "IC50", "value": "200 to 500", "unit": "nM"}]}
{"smiles": "COc1nnc(NC(=O)c2cnc(C)cc2-c2coc3ccccc23)s1", "note": "[Example 436, 4-(1-benzofuran-3-yl)-N-(5-methoxy-1,3,4-thiadiazol-2-yl)-6-methylpyridine-3-carboxamide]", "values": [{"measurement": "IC50", "value": "1000 to 10000", "unit": "nM"}]}
{"smiles": "COc1nnc(NC(=O)c2cnc(C)cc2-c2ccc(C#N)nc2)s1", "note": "[Example 437, 6-cyano-N-(5-methoxy-1,3,4-thiadiazol-2-yl)-6′-methyl-[3,4′-bipyridine]-3′-carboxamide]", "values": [{"measurement": "IC50", "value": "1000 to 10000", "unit": "nM"}]}
{"smiles": "COc1nnc(NC(=O)c2cnc(C)cc2-c2ccc3occc(=O)c3c2)s1", "note": "[Example 438, N-(5-methoxy-1,3,4-thiadiazol-2-yl)-6-methyl-4-(4-oxo-4H-chromen-6-yl)nicotinamide]", "values": [{"measurement": "IC50", "value": "1000 to 10000", "unit": "nM"}]}
{"smiles": "COc1nnc(NC(=O)c2cnc(C)cc2-c2cc(F)cc(C#N)c2)s1", "note": "[Example 439, 4-(3-cyano-5-fluorophenyl)-N-(5-methoxy-1,3,4-thiadiazol-2-yl)-6-methylpyridine-3-carboxamide]", "values": [{"measurement": "IC50", "value": "500 to 1000", "unit": "nM"}]}
{"smiles": "COc1nnc(NC(=O)c2cnc(C)cc2-c2cnnc(C)c2)s1", "note": "[Example 440, N-(5-methoxy-1,3,4-thiadiazol-2-yl)-6-methyl-4-(6-methylpyridazin-4-yl)nicotinamide]", "values": [{"measurement": "IC50", "value": "1000 to 10000", "unit": "nM"}]}
{"smiles": "COc1nnc(NC(=O)c2cnc(C)cc2-c2cscc2C#N)s1", "note": "[Example 442, 4-(4-cyanothiophen-3-yl)-N-(5-methoxy-1,3,4-thiadiazol-2-yl)-6-methylpyridine-3-carboxamide]", "values": [{"measurement": "IC50", "value": "1000 to 10000", "unit": "nM"}]}
{"smiles": "COc1nnc(NC(=O)c2cnc(C)cc2-c2cnc(C#N)nc2)s1", "note": "[Example 444, 4-(2-cyanopyrimidin-5-yl)-N-(5-methoxy-1,3,4-thiadiazol-2-yl)-6-methylnicotinamide]", "values": [{"measurement": "IC50", "value": "1000 to 10000", "unit": "nM"}]}
{"smiles": "COc1ccc(-c2cc(C)ncc2C(=O)Nc2nnc(OC)s2)c(F)c1", "note": "[Example 445, 4-(2-fluoro-4-methoxyphenyl)-N-(5-methoxy-1,3,4-thiadiazol-2-yl)-6-methylnicotinamide]", "values": [{"measurement": "IC50", "value": "1000 to 10000", "unit": "nM"}]}
{"smiles": "COc1nnc(NC(=O)c2cnc(C)cc2-c2cccc(OC)c2F)s1", "note": "[Example 446, 4-(2-fluoro-3-methoxyphenyl)-N-(5-methoxy-1,3,4-thiadiazol-2-yl)-6-methylpyridine-3-carboxamide]", "values": [{"measurement": "IC50", "value": "1000 to 10000", "unit": "nM"}]}
{"smiles": "COc1ccc(F)c(-c2cc(C)ncc2C(=O)Nc2nnc(OC)s2)c1", "note": "[Example 447, 4-(2-fluoro-5-methoxyphenyl)-N-(5-methoxy-1,3,4-thiadiazol-2-yl)-6-methylpyridine-3-carboxamide]", "values": [{"measurement": "IC50", "value": "500 to 1000", "unit": "nM"}]}
{"smiles": "COc1nnc(NC(=O)c2cnc(C)cc2-c2ccc(OC(F)F)cc2)s1", "note": "[Example 448, 4-[4-(difluoromethoxy)phenyl]-N-(5-methoxy-1,3,4-thiadiazol-2-yl)-6-methylpyridine-3-carboxamide]", "values": [{"measurement": "IC50", "value": "1000 to 10000", "unit": "nM"}]}
{"smiles": "COc1nnc(NC(=O)c2cnc(C)cc2-c2ccc3c(cnn3C)c2)s1", "note": "[Example 449, N-(5-methoxy-1,3,4-thiadiazol-2-yl)-6-methyl-4-(1-methyl-1H-indazol-5-yl)pyridine-3-carboxamide]", "values": [{"measurement": "IC50", "value": "500 to 1000", "unit": "nM"}]}
{"smiles": "COc1nnc(NC(=O)c2cnc(C)cc2-c2ccc(F)c(C(F)(F)F)c2)s1", "note": "[Example 450, 4-[4-fluoro-3-(trifluoromethyl)phenyl]-N-(5-methoxy-1,3,4-thiadiazol-2-yl)-6-methylpyridine-3-carboxamide]", "values": [{"measurement": "IC50", "value": "≤ 200", "unit": "nM"}]}
{"smiles": "COc1nnc(NC(=O)c2cnc(C)cc2-c2cn[nH]c2)s1", "note": "[Example 451, N-(5-methoxy-1,3,4-thiadiazol-2-yl)-6-methyl-4-(1H-pyrazol-4-yl)nicotinamide]", "values": [{"measurement": "IC50", "value": "1000 to 10000", "unit": "nM"}]}
{"smiles": "COc1nnc(NC(=O)c2cnc(C)cc2-c2cccc(O)c2)s1", "note": "[Example 452, 4-(3-hydroxyphenyl)-N-(5-methoxy-1,3,4-thiadiazol-2-yl)-6-methylpyridine-3-carboxamide]", "values": [{"measurement": "IC50", "value": "1000 to 10000", "unit": "nM"}]}
{"smiles": "COc1nnc(NC(=O)c2cnc(C)cc2-c2cccc(-c3ccn(C)n3)c2)s1", "note": "[Example 453, N-(5-methoxy-1,3,4-thiadiazol-2-yl)-6-methyl-4-[3-(1-methyl-1H-pyrazol-3-yl)phenyl]pyridine-3-carboxamide]", "values": [{"measurement": "IC50", "value": "1000 to 10000", "unit": "nM"}]}
{"smiles": "COc1nnc(NC(=O)c2cnc(C)cc2-c2ccccc2C#N)s1", "note": "[Example 454, 4-(2-cyanophenyl)-N-(5-methoxy-1,3,4-thiadiazol-2-yl)-6-methylpyridine-3-carboxamide]", "values": [{"measurement": "IC50", "value": "1000 to 10000", "unit": "nM"}]}
{"smiles": "COc1nnc(NC(=O)c2cnc(C)cc2-c2ccc(S(C)(=O)=O)nc2)s1", "note": "[Example 455, N-(5-methoxy-1,3,4-thiadiazol-2-yl)-6′-methyl-6-(methylsulfonyl)-[3,4′-bipyridine]-3′-carboxamide]", "values": [{"measurement": "IC50", "value": "1000 to 10000", "unit": "nM"}]}
{"smiles": "COc1nnc(NC(=O)c2cnc(C)cc2-c2cnn(-c3ccccc3)c2C)s1", "note": "[Example 456, N-(5-methoxy-1,3,4-thiadiazol-2-yl)-6-methyl-4-(5-methyl-1-phenyl-1H-pyrazol-4-yl)pyridine-3-carboxamide]", "values": [{"measurement": "IC50", "value": "1000 to 10000", "unit": "nM"}]}
{"smiles": "COc1nnc(NC(=O)c2cnc(C)cc2-c2cnc(N(C)C)nc2)s1", "note": "[Example 458, 4-(2-(dimethylamino)pyrimidin-5-yl)-N-(5-methoxy-1,3,4-thiadiazol-2-yl)-6-methylnicotinamide]", "values": [{"measurement": "IC50", "value": "1000 to 10000", "unit": "nM"}]}
{"smiles": "CCc1ccc(-c2cc(C)ncc2C(=O)Nc2nnc(OC)s2)cc1", "note": "[Example 459, 4-(4-ethylphenyl)-N-(5-methoxy-1,3,4-thiadiazol-2-yl)-6-methylpyridine-3-carboxamide]", "values": [{"measurement": "IC50", "value": "1000 to 10000", "unit": "nM"}]}
{"smiles": "COc1nnc(NC(=O)c2cnc(C)cc2-c2cnn(-c3ccccc3)c2)s1", "note": "[Example 460, N-(5-methoxy-1,3,4-thiadiazol-2-yl)-6-methyl-4-(1-phenyl-1H-pyrazol-4-yl)nicotinamide]", "values": [{"measurement": "IC50", "value": "1000 to 10000", "unit": "nM"}]}
{"smiles": "COc1nnc(NC(=O)c2cnc(C)cc2-c2cccnc2C)s1", "note": "[Example 461, N-(5-methoxy-1,3,4-thiadiazol-2-yl)-2,6′-dimethyl-[3,4′-bipyridine]-3′-carboxamide]", "values": [{"measurement": "IC50", "value": "1000 to 10000", "unit": "nM"}]}
{"smiles": "COc1ccc(-c2cc(C)ncc2C(=O)Nc2nnc(OC)s2)c(OC)c1", "note": "[Example 462, 4-(2,4-dimethoxyphenyl)-N-(5-methoxy-1,3,4-thiadiazol-2-yl)-6-methylpyridine-3-carboxamide]", "values": [{"measurement": "IC50", "value": "200 to 500", "unit": "nM"}]}
{"smiles": "COc1cc(C)c(-c2cc(C)ncc2C(=O)Nc2nnc(OC)s2)cn1", "note": "[Example 463, 6-methoxy-N-(5-methoxy-1,3,4-thiadiazol-2-yl)-4,6′-dimethyl-[3,4′-bipyridine]-3′-carboxamide]", "values": [{"measurement": "IC50", "value": "1000 to 10000", "unit": "nM"}]}
{"smiles": "COc1nnc(NC(=O)c2cnc(C)cc2-c2cn(C)c3ccccc23)s1", "note": "[Example 464, N-(5-methoxy-1,3,4-thiadiazol-2-yl)-6-methyl-4-(1-methyl-1H-indol-3-yl)pyridine-3-carboxamide]", "values": [{"measurement": "IC50", "value": "1000 to 10000", "unit": "nM"}]}
{"smiles": "COc1nnc(NC(=O)c2cnc(C)cc2-c2ccc(C(=O)O)c(F)c2)s1", "note": "[Example 465, 2-fluoro-4-(5-((5-methoxy-1,3,4-thiadiazol-2-yl)carbamoyl)-2-methylpyridin-4-yl)benzoic acid]", "values": [{"measurement": "IC50", "value": "1000 to 10000", "unit": "nM"}]}
{"smiles": "COc1nnc(NC(=O)c2cnc(C)cc2-c2cccc(OCC#N)c2)s1", "note": "[Example 466, 4-[3-(cyanomethoxy)phenyl]-N-(5-methoxy-1,3,4-thiadiazol-2-yl)-6-methylpyridine-3-carboxamide]", "values": [{"measurement": "IC50", "value": "1000 to 10000", "unit": "nM"}]}
{"smiles": "COc1nnc(NC(=O)c2cnc(C)cc2-c2ccnc(C(F)(F)F)c2)s1", "note": "[Example 467, N-(5-methoxy-1,3,4-thiadiazol-2-yl)-6-methyl-2′-(trifluoromethyl)-[4,4′-bipyridine]-3-carboxamide]", "values": [{"measurement": "IC50", "value": "500 to 1000", "unit": "nM"}]}
{"smiles": "COc1nnc(NC(=O)c2cnc(C)cc2-c2cnn(Cc3ccccc3)c2)s1", "note": "[Example 468, 4-(1-benzyl-1H-pyrazol-4-yl)-N-(5-methoxy-1,3,4-thiadiazol-2-yl)-6-methylnicotinamide]", "values": [{"measurement": "IC50", "value": "1000 to 10000", "unit": "nM"}]}
{"smiles": "COc1nnc(NC(=O)c2cnc(C)cc2-c2cc(C)nc(C)c2)s1", "note": "[Example 469, N-(5-methoxy-1,3,4-thiadiazol-2-yl)-2′,6,6′-trimethyl-[4,4′-bipyridine]-3-carboxamide]", "values": [{"measurement": "IC50", "value": "200 to 500", "unit": "nM"}]}
{"smiles": "COc1nnc(NC(=O)c2cnc(C)cc2-c2ccc3ncncc3c2)s1", "note": "[Example 470, N-(5-methoxy-1,3,4-thiadiazol-2-yl)-6-methyl-4-(quinazolin-6-yl)pyridine-3-carboxamide]", "values": [{"measurement": "IC50", "value": "1000 to 10000", "unit": "nM"}]}
{"smiles": "COc1nnc(NC(=O)c2cnc(C)cc2-c2cncc(F)c2)s1", "note": "[Example 471, 5-fluoro-N-(5-methoxy-1,3,4-thiadiazol-2-yl)-6′-methyl-[3,4′-bipyridine]-3′-carboxamide]", "values": [{"measurement": "IC50", "value": "1000 to 10000", "unit": "nM"}]}
{"smiles": "COc1nnc(NC(=O)c2cnc(C)cc2-c2cccc(CC(N)=O)c2)s1", "note": "[Example 472, 4-[3-(carbamoylmethyl)phenyl]-N-(5-methoxy-1,3,4-thiadiazol-2-yl)-6-methylpyridine-3-carboxamide]", "values": [{"measurement": "IC50", "value": "1000 to 10000", "unit": "nM"}]}
